# Measurements: US20240254134A1, “AGELASTATIN A DERIVATIVES AND RELATED METHODS” (ROMO, Daniel, priority 2021, published 2024)
# Like-named read-outs stand apart in the source and are kept apart here.
# How the values were obtained:
# [1] = Stability of 7-hydroxy AglA derivatives (1H NMR); type: physicochemical
# HeLa cells = settings: cited from earlier work
# [2] = Cancer cell line cytotoxicity assay (MTS or resazurin, 72 h); type: cell-based; settings: human
# Experimental: (§1) Cancer Cell Line Cytotoxicity Assays Cancer cell lines (MDA-MB-231, MCF7, Caco2, or U87) were plated on 96-well plates at 2,000 cells per well and incubated for 24 h at 37° C., 5% CO2. AglA and derivatives were dissolved in DMSO, diluted to the appropriate concentrations, and the compound solutions or equivalent concentration of solvent (vehicle) were added to the plate and incubated for 72 h at 37° C., 5% CO2. Following the manufacturer protocol, 20 μL of CellTiter 96® AQueous One Solution Cell Proliferation Assay (MTS, Promega), or CellTiter-Blue@ Cell Viability Assay (resazurin, Promega) was added. The plate was allowed to develop for 1-4 h at 37° C., 5% CO2 and evaluated at 490 nm on an AccuSkan Go (Fisher Scientific) or at 560 nm excitation and 590 nm emission on a VarioSkan Lux Multimode Microplate Reader (Fisher Scientific).
# [3] = Stability studies of pyrrole-derived carbinolamines 18a-18c (1H NMR); type: physicochemical; settings: in CD3OD
# Experimental: We synthesized pyrrole carboxylic amides 17a-c to study the equilibrium between the corresponding carbinolamines and pyrrolo ketones (FIG. 5). Reduction of 2-azidocyclopentanone and condensation with pyrrole-1H-carboxylic acid gave amide 17b. Upon treatment of ketone 17b with Et3N, cyclization gave the corresponding carbinolamine 18b in 73% yield (>19:1 dr, 600 MHz ^1H NMR). […] When resubjected to NEt3/CH2Cl2 at ambient temperature (22° C.) for 16 h, only a small amount of the ring-opened keto pyrrole 17b was generated leading to an equilibrium ratio of 11:1 (18b/17b) favoring the cyclized form as judged by ^1H NMR. […] In contrast, the 5-bromo pyrrole analog 17a, that most closely mimics the targeted 7-hydroxy AglA, disfavored the closed form 18a.
# To a stirred solution of carbinolamine 18b (3.0 mg, 0.016 mmol, 1.0 equiv) in dichloromethane (0.32 mL) was added triethylamine (6.6 μl, 0.047 mmol, 3.0 equiv).
# To a stirred solution of carbinolamine 18c (1.2 mg, 0.0044 mmol, 1.0 equiv) was added a solution of triethylamine in dichloromethane (0.1 mL, the solution was made by mixing 19 μl triethylamine and 1.0 mL dichloromethane).
# To a 1.0 dram vial was charged 17a (2.7 mg, 0.01 mmol, 1.0 equiv) and a solution of triethylamine in dichloromethane (0.23 mL, […], 3.0 equiv. The solution was made by mixing 19 μl triethylamine and 1.0 mL dichloromethane).
# In a 1.5 dram vial, carbinolamine 18b (2.6 mg, 0.014 mmol, 1.0 equiv) was dissolved in THF (0.14 mL) and MeOH (0.14 mL) and the mixture was cooled to 0° C. N-bromosuccinamide (2.5 mg, 0.0142 mmol, 1.05 equiv) was added and the reaction was allowed to warm up to ambient temperature (22° C.). After stirring for 4 h, TLC indicated there was no more starting material and the reaction mixture was concentrated and purified by column chromatography on silica (MeOH/CH2Cl2, 0 to 20%) to give a mixture of 18a/18c/17a (2.4 mg, 65%) in 1:0.6:0.44 ratio. This mixture was monitored by NMR to probe the stability of the 5-bromo derivative in CD3OD. […]
# MCF7 = assay: Cancer cell line cytotoxicity assay (MTS or resazurin, 72 h); type: cell-based; settings: MCF7, 72 h incubation
# Experimental: as §1
# U87 = assay: as above; type: cell-based; settings: glioblastoma cell line U87, 72 h incubation
# Experimental: as §1
# MDA-MB-231 = assay: as above; type: cell-based; settings: MDA-MB-231, 72 h incubation
# Experimental: as §1
# Caco2 = assay: as above; type: cell-based; settings: Caco2, 72 h incubation
# Experimental: as §1
# [4] = test system: Cancer cell lines (MDA-MB-231, MCF7, Caco2, or U87); assay: Cancer cell line cytotoxicity, span over all cell lines studied; type: cell-based; settings: Homo sapiens; all cell lines studied except Caco-2; read-out: activity against all cell lines studied (span of values)
# Experimental: as §1
# [5] = test system: peptidyl transfer center (PTC) of the ribosome; settings: HeLa cells; cited from earlier work
# [6] = test system: glycogen synthase kinase-3β; settings: cited from earlier work
# [7] = biological target: osteopontin (OPN, encoded by SPP1) (Homo sapiens, UniProt P10451); settings: cited from earlier work
# Chain of osteopontin (OPN, encoded by SPP1) (P10451 17-314, species assumed): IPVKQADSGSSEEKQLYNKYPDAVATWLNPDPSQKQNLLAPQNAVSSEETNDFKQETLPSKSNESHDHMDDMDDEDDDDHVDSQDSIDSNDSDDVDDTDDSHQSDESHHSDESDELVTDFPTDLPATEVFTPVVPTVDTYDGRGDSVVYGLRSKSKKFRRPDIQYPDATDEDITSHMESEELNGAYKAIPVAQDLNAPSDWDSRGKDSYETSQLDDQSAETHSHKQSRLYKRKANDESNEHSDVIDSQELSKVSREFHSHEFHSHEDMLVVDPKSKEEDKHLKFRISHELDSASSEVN
# Chain of glycogen synthase kinase-3β (P49841 whole entry): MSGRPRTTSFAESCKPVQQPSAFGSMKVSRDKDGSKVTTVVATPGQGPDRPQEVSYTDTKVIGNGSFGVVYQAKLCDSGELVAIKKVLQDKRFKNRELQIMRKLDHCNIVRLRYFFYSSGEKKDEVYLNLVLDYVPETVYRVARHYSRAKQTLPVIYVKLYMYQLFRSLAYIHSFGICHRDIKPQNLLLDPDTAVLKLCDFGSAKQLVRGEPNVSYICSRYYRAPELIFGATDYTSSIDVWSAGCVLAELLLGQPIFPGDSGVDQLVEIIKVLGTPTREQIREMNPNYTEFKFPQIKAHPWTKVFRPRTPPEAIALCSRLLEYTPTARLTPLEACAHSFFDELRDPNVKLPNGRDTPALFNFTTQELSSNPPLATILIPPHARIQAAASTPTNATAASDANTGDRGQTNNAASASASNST
compound,measurement,setting,value
7-hydroxy AglA [7-OH AglA],stability (ring-closed carbinolamine vs ring opened ketopyrrole tautomer),[1],instability
same,stability (ring-closed carbinolamine vs ring opened ketopyrrole tautomer),[1]; listed as 7-hydroxy AglA,unstable
13-des-bromo AglA,drop in potency compared to AglA,HeLa cells,~500 X
"CN1C(=O)N[C@H]2[C@@H]3NC(=O)c4cccn4[C@]3(O)C[C@]21O (racemic) [compound 24, 7-hydroxy-13-des-bromo AglA]",EC50 at 72 h,"[2]; Caco2 cells, Caco2, 72 h incubation",> 250 µM
same,EC50 at 72 h,"[2]; MCF7 cells, MCF7, 72 h incubation",> 250 µM
same,EC50 at 72 h,"[2]; MDA-MB-231 cells, MDA-MB-231, 72 h incubation",> 250 µM
same,EC50 at 72 h,"[2]; U87 glioblastoma cells, glioblastoma cell line U87, 72 h incubation",171 ± 8 µM
same,stability by 1H NMR,[1]; stored in CD3OD or DMSO-d6 at ambient temperature (22° C.) for 7 days,quite stable
O=C1NC2CCCC2(O)n2c(Br)ccc21 (stereo not shown) [18a],stability of carbinolamine under neutral conditions,[3],opened rapidly in CD3OD
O=C1NC2CCCC2(O)n2cccc21 (stereo not shown) [18b],stability of carbinolamine under neutral conditions,[3],stable in CD3OD for several days
O=C1NC2CCCC2(O)n2cc(Br)cc21 (stereo not shown) [18c],stability of carbinolamine under neutral conditions,[3],stable under neutral conditions
CO[C@@]12C[C@H]3OC(c4ccc(Br)[nH]4)=N[C@H]3[C@@H]1NC(=O)N2C [26a],cytotoxicity EC50,MCF7,no activity
same,cytotoxicity EC50,U87,no activity
same,cytotoxicity EC50,MDA-MB-231,no activity
same,cytotoxicity EC50,Caco2,no activity
"CN1C(=O)N[C@H]2[C@@H]3NC(=O)c4ccc([N+](=O)[O-])n4[C@@H]3C[C@]21O [compound 37, 13-nitro AglA]",EC50,[4],1.16 to 35.4 µM
Agelastatin A [AglA],binding to the peptidyl transfer center of the ribosome,[5],binds to the peptidyl transfer center (PTC) of the ribosome
same,inhibition of expression of glycogen synthase kinase-3β,[6],inhibits the expression
same,inhibition of osteopontin,[7],inhibition of osteopontin
